Assay results published in ChEMBL document CHEMBL3832075, “DailyMed|setid=ff7c9b1c-4192-4d09-a2ab-b80ec14cd424 | PENTOXIL- pentoxifylline tablet, film coated, extended release|UPSHER-SMITH LABORATORIES, INC”.

Tests used:
[1] = (§1) Pharmacokinetic parameters for Pentoxifylline evaluated after oral administration of Pentoxifylline tablet and in aqueous solution.; assay type: ADME, organism-based; conditions: human, in vivo, dosed compound id 54, dosed compound name PENTOXIFYLLINE, tissue Plasma
Homo sapiens = assay: as §1; assay type: ADME, organism-based; conditions: in vivo, po, dose 400 mg, dosed compound id 54, dosed compound name PENTOXIFYLLINE, tissue Plasma

CC(=O)CCCCn1c(=O)c2c(ncn2C)n(C)c1=O [PENTOXIFYLLINE]
half-life ([1]; dose 100 to 400 mg): 24 to 48 min
Tmax [1]: 1 h
Tmax (Homo sapiens): 2 to 4 h
